US9102678B2, “Compounds and methods for inhibiting mitotic progression” (Millennium Pharmaceuticals, Inc., priority 2004, dated 2015)

target: T1, recombinant murine Aurora A enzyme (Mus musculus, UniProt P97477); assay: Aurora A DELFIA Kinase Assay; type: biochemical; details: mouse Aurora A, 250 μM ATP; threshold less than or equal to 100 nM; read-out: IC50
T1 construct: hexahistidine (His6) (N); made in house; host or cells: insect cells, baculovirus (Bac-to-Bac, Invitrogen)
T1 sequence (P97477 whole entry): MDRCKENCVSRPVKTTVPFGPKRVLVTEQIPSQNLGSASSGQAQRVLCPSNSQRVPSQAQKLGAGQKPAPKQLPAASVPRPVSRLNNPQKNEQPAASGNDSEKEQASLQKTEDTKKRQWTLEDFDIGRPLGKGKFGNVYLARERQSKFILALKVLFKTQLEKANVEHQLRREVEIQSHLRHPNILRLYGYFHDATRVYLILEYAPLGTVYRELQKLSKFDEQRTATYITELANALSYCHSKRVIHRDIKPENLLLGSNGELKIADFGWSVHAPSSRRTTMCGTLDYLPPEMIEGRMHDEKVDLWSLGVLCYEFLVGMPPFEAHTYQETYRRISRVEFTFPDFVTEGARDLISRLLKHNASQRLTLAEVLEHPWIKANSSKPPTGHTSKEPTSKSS

IC50, ≤ 100 nM:
CN(C)C1CCCN(C(=O)c2ccc(Nc3ncc4c(n3)-c3ccc(Cl)cc3C(c3c(F)cccc3F)=NC4)cc2)C1 (centres unmarked) [Compound I-293, 9-chloro-7-(2,6-difluorophenyl)-N-(4-{[3-(dimethylamino)piperidin-1-yl]carbonyl}phenyl)-5H-pyrimido[5,4-d][2]benzazepin-2-amine]
COC(=O)C1(N)CCN(C(=O)c2ccc(Nc3ncc4c(n3)-c3ccc(Cl)cc3C(c3c(F)cccc3F)=NC4)cc2)CC1 [Compound I-294, methyl 4-amino-1-(4-{[9-chloro-7-(2,6-difluorophenyl)-5H-pyrimido[5,4-d][2]benzazepin-2-yl]amino}benzoyl)piperidine-4-carboxylate]
NC1(C(=O)O)CCN(C(=O)c2ccc(Nc3ncc4c(n3)-c3ccc(Cl)cc3C(c3c(F)cccc3F)=NC4)cc2)CC1 [Compound I-295, 4-amino-1-(4-{[9-chloro-7-(2,6-difluorophenyl)-5H-pyrimido[5,4-d][2]benzazepin-2-yl]amino}benzoyl)piperidine-4-carboxylic acid]
NC1CN(C(=O)c2ccc(Nc3ncc4c(n3)-c3ccc(Cl)cc3C(c3ccccc3C(F)(F)F)=NC4)cc2)C1 [Compound I-296, N-{4-[(3-aminoazetidin-1-yl)carbonyl]phenyl}-9-chloro-7-[2-(trifluoromethyl)phenyl]-5H-pyrimido[5,4-d][2]benzazepin-2-amine]
CNC1CN(C(=O)c2ccc(Nc3ncc4c(n3)-c3ccc(Cl)cc3C(c3ccccc3C(F)(F)F)=NC4)cc2)C1 [Compound I-297, 9-chloro-N-(4-{[3-(methylamino)azetidin-1-yl]carbonyl}phenyl)-7-[2-(trifluoromethyl)phenyl]-5H-pyrimido[5,4-d][2]benzazepin-2-amine]
NC1CCN(C(=O)c2ccc(Nc3ncc4c(n3)-c3ccc(Cl)cc3C(c3ccccn3)=NC4)cc2)CC1 [Compound I-298, N-{4-[(4-aminopiperidin-1-yl)carbonyl]phenyl}-9-chloro-7-pyridin-2-yl-5H-pyrimido[5,4-d][2]benzazepin-2-amine]
NC1CCN(C(=O)c2ccc(Nc3ncc4c(n3)-c3ccc(Cl)cc3C(c3ccccn3)=NC4)cc2)C1 (centres unmarked) [Compound I-299, N-{4-[(3-aminopyrrolidin-1-yl)carbonyl]phenyl}-9-chloro-7-pyridin-2-yl-5H-pyrimido[5,4-d][2]benzazepin-2-amine]
CCOC(=O)C(N)CCNC(=O)c1ccc(Nc2ncc3c(n2)-c2ccc(Cl)cc2C(c2c(F)cccc2F)=NC3)cc1 (centres unmarked) [Compound I-300, ethyl 2-amino-4-[(4-{[9-chloro-7-(2,6-difluorophenyl)-5H-pyrimido[5,4-d][2]benzazepin-2-yl]amino}benzoyl)amino]butanoate]
O=C(O)c1ccc(Nc2ncc3c(n2)-c2ccc(Cl)cc2C(c2ncccc2F)=NC3)cc1 [Compound I-301, 4-{[9-chloro-7-(3-fluoropyridin-2-yl)-5H-pyrimido[5,4-d][2]benzazepin-2-yl]amino}benzoic acid]
NC1CCN(C(=O)c2ccc(Nc3ncc4c(n3)-c3ccc(Cl)cc3C(c3ncccc3F)=NC4)cc2)CC1 [Compound I-304, N-{4[(4-aminopiperidin-1-yl)carbonyl]phenyl}-9-chloro-7-(3-fluoropyridin-2-yl)-5H-pyrimido[5,4-d][2]benzazepin-2-amine]
NC1CCN(C(=O)c2ccc(Nc3ncc4c(n3)-c3ccc(Cl)cc3C(c3ncccc3F)=NC4)cc2)C1 (centres unmarked) [Compound I-305]
O=C(O)C1CN=C(c2ccc(Nc3ncc4c(n3)-c3ccc(Cl)cc3C(c3c(F)cccc3F)=NC4)cc2)N1 (centres unmarked) [Compound I-306, 2-(4-{[9-chloro-7-(2,6-difluorophenyl)-5H-pyrimido[5,4-d][2]benzazepin-2-yl]amino}phenyl)-4,5-dihydro-1H-imidazole-5-carboxylic acid]
CN(C)CC(=O)Nc1ccc(Nc2ncc3c(n2)-c2ccc(Cl)cc2C(c2c(F)cccc2F)=NC3)cc1 [Compound I-307, N-(4-{[9-chloro-7-(2,6-difluorophenyl)-5H-pyrimido[5,4-d][2]benzazepin-2-yl]amino}phenyl)-2-(dimethylamino)acetamide]
CC(C)(N)C(=O)Nc1ccc(Nc2ncc3c(n2)-c2ccc(Cl)cc2C(c2c(F)cccc2F)=NC3)cc1 [Compound I-308, 2-amino-N-(4-{[9-chloro-7-(2,6-difluorophenyl)-5H-pyrimido[5,4-d][2]benzazepin-2-yl]amino}phenyl)-2-methylpropanamide]
CCOC(=O)[C@@H](CCN)NC(=O)c1ccc(Nc2ncc3c(n2)-c2ccc(Cl)cc2C(c2c(F)cccc2F)=NC3)cc1 [Compound I-309, ethyl (2R)-4-amino-2-[(4-{[9-chloro-7-(2,6-difluorophenyl)-5H-pyrimido[5,4-d][2]benzazepin-2-yl]amino}benzoyl)amino]butanoate]
CNC(=O)C1CN(C(=O)c2ccc(Nc3ncc4c(n3)-c3ccc(Cl)cc3C(c3c(F)cccc3F)=NC4)cc2)CCN1 (centres unmarked) [Compound I-310, 4-(4-{[9-chloro-7-(2,6-difluorophenyl)-5H-pyrimido[5,4-d][2]benzazepin-2-yl]amino}benzoyl)-N-methylpiperazine-2-carboxamide]
CN(C)C1CCN(C(=O)c2ccc(Nc3ncc4c(n3)-c3ccc(Cl)cc3C(c3c(F)cccc3F)=NC4)cc2Cl)CC1 [Compound I-313, 9-chloro-N-(3-chloro-4-{[4-(dimethylamino)piperidin-1-yl]carbonyl}phenyl)-7-(2,6-difluorophenyl)-5H-pyrimido[5,4-d][2]benzazepin-2-amine]
CCOC(=O)C1CN=C(c2ccc(Nc3ncc4c(n3)-c3ccc(Cl)cc3C(c3c(F)cccc3F)=NC4)cc2)N1 (centres unmarked) [Compound I-314, ethyl 2-(4-{[9-chloro-7-(2,6-difluorophenyl)-5H-pyrimido[5,4-d][2]benzazepin-2-yl]amino}phenyl)-4,5-dihydro-1H-imidazole-5-carboxylate]
CNC1CCN(C(=O)c2ccc(Nc3ncc4c(n3)-c3ccc(Cl)cc3C(c3ccccn3)=NC4)cc2)C1 (centres unmarked) [Compound I-315, 9-chloro-N-(4-{[3-(methylamino)pyrrolidin-1-yl]carbonyl}phenyl)-7-pyridin-2-yl-5H-pyrimido[5,4-d][2]benzazepin-2-amine]
CNC1CCN(C(=O)c2ccc(Nc3ncc4c(n3)-c3ccc(Cl)cc3C(c3ccccn3)=NC4)cc2)CC1 [Compound I-316, 9-chloro-N-(4-{[4-(methylamino)piperidin-1-yl]carbonyl}phenyl)-7-pyridin-2-yl-5H-pyrimido[5,4-d][2]benzazepin-2-amine]
NC(=O)C1CN(C(=O)c2ccc(Nc3ncc4c(n3)-c3ccc(Cl)cc3C(c3c(F)cccc3F)=NC4)cc2)CCN1 (centres unmarked) [Compound I-317, 4-(4-{[9-chloro-7-(2,6-difluorophenyl)-5H-pyrimido[5,4-d][2]benzazepin-2-yl]amino}benzoyl)piperazine-2-carboxamide]
NC1CCN(C(=O)c2ccc(Nc3ncc4c(n3)-c3ccc(Cl)cc3C(c3c(F)cccc3F)=NC4)cc2Cl)C1 (centres unmarked) [Compound I-318]
O=C(Nc1ccc(Nc2ncc3c(n2)-c2ccc(Cl)cc2C(c2c(F)cccc2F)=NC3)cc1)C1CCNCC1 [Compound I-319, N-(4-{[9-chloro-7-(2,6-difluorophenyl)-5H-pyrimido[5,4-d][2]benzazepin-2-yl]amino}phenyl)piperidine-4-carboxamide]
CC1CN(C(=O)c2ccc(Nc3ncc4c(n3)-c3ccc(Cl)cc3C(c3ccc(F)cc3F)=NC4)cc2)CC(C)N1 (centres unmarked) [Compound I-321, 9-chloro-7-(2,4-difluorophenyl)-N-{4-[(3,5-dimethylpiperazin-1-yl)carbonyl]phenyl}-5H-pyrimido[5,4-d][2]benzazepin-2-amine]
CC1CN(C(=O)c2ccc(Nc3ncc4c(n3)-c3ccc(Cl)cc3C(c3c(F)cccc3Cl)=NC4)cc2)CCN1 (centres unmarked) [Compound I-323, 9-chloro-7-(2-chloro-6-fluorophenyl)-N-{4-[(3-methylpiperazin-1-yl)carbonyl]phenyl}-5H-pyrimido[5,4-d][2]benzazepin-2-amine]
CC1CN(C(=O)c2ccc(Nc3ncc4c(n3)-c3ccc(Cl)cc3C(c3c(F)cccc3Cl)=NC4)cc2)CC(C)N1 (centres unmarked) [Compound I-324, 9-chloro-7-(2-chloro-6-fluorophenyl)-N-{4-[(3,5-dimethylpiperazin-1-yl)carbonyl]phenyl}-5H-pyrimido[5,4-d][2]benzazepin-2-amine]
CNC1CCN(C(=O)c2ccc(Nc3ncc4c(n3)-c3ccc(Cl)cc3C(c3c(F)cccc3Cl)=NC4)cc2)CC1 [Compound I-325, 9-chloro-7-(2-chloro-6-fluorophenyl)-N-(4-{[4-(methylamino)piperidin-1-yl]carbonyl}phenyl)-5H-pyrimido[5,4-d][2]benzazepin-2-amine]
CNC1CCCN(C(=O)c2ccc(Nc3ncc4c(n3)-c3ccc(Cl)cc3C(c3c(F)cccc3Cl)=NC4)cc2)C1 (centres unmarked) [Compound I-326, 9-chloro-7-(2-chloro-6-fluorophenyl)-N-(4-{[3-(methylamino)piperidin-1-yl]carbonyl}phenyl)-5H-pyrimido[5,4-d][2]benzazepin-2-amine]
CNC1CCN(C(=O)c2ccc(Nc3ncc4c(n3)-c3ccc(Cl)cc3C(c3c(F)cccc3Cl)=NC4)cc2)C1 (centres unmarked) [Compound I-327, 9-chloro-7-(2-chloro-6-fluorophenyl)-N-(4-{[3-(methylamino)pyrrolidin-1-yl]carbonyl}phenyl)-5H-pyrimido[5,4-d][2]benzazepin-2-amine]
